Results on 3 substances are retold here after PMC2774623 (Biochemistry, 2008).

Test [1] has as its system CK2α catalytic subunit. The following applies: β interaction with CK2α; cited from earlier work.
In test [2] the test system is CK2α catalytic subunit. The experiment in a line: Effect of CFTR peptides on substrate phosphorylation by CK2α catalytic subunit. The class given is biochemical, human. The following applies: below 400 μM, murine NBD1, Figure 3A.
The test system of another test is CK2 holoenzyme. As to the kind of experiment: Effect of CFTR peptides on substrate phosphorylation by CK2 holoenzyme. In kind it is biochemical, human.

For the substance “Δ wt: CK2 β-subunit; its interaction values with CK2α were from ref 29”, in the test on CK2α catalytic subunit [1], the “ka (M^−1 s^−1) × 10^3” value is 22.7 M^−1 s^−1 × 10^3 and the “kd (s^−1) × 10^−3” value was 0.93 s^−1 × 10^−3. With “GTIKENIIFGVSYDEYRYR [CFTR 500−518 wild type]”, the “effect on NBD1 phosphorylation by CK2α at lower peptide concentrations” value with CK2α catalytic subunit [2] is reported as “slight stimulatory effect”. In addition, the “stimulation of I-2 and HSP90 phosphorylation by CK2 holoenzyme” value in the test on CK2 holoenzyme (peptides 80 μM, I-2 2.5 μM, HSP90 0.5 μM, Figure 5A) is “no stimulation”. As for GTIKENIIGVSYDEYRYR [CFTR 500−518 ΔF508], in the test with CK2 holoenzyme (peptide concentration up to 800 μM, Figure 3B), the “inhibition of holoenzyme-mediated NBD1 phosphorylation” value was “no inhibition”.
